The numbers were not newly measured in patent publication US20220226239A1, “POLYMERIC MICELLE COMPLEXES, FORMULATIONS, AND USES THEREOF” (ARAVASC INC., priority 2019, published 2022), which cites them from elsewhere.

The conditions of series [1]: for pKa (tri-protic phosphate), first value: first of three pKa values; for pKa (tri-protic phosphate), second value: second of three pKa values; for pKa (tri-protic phosphate), third value: third of three pKa values.
In series [2] the target is T1, dihydropyrimidine dehydrogenase (DPD) (Homo sapiens, UniProt Q12882).
T1 sequence (Q12882 4-1025): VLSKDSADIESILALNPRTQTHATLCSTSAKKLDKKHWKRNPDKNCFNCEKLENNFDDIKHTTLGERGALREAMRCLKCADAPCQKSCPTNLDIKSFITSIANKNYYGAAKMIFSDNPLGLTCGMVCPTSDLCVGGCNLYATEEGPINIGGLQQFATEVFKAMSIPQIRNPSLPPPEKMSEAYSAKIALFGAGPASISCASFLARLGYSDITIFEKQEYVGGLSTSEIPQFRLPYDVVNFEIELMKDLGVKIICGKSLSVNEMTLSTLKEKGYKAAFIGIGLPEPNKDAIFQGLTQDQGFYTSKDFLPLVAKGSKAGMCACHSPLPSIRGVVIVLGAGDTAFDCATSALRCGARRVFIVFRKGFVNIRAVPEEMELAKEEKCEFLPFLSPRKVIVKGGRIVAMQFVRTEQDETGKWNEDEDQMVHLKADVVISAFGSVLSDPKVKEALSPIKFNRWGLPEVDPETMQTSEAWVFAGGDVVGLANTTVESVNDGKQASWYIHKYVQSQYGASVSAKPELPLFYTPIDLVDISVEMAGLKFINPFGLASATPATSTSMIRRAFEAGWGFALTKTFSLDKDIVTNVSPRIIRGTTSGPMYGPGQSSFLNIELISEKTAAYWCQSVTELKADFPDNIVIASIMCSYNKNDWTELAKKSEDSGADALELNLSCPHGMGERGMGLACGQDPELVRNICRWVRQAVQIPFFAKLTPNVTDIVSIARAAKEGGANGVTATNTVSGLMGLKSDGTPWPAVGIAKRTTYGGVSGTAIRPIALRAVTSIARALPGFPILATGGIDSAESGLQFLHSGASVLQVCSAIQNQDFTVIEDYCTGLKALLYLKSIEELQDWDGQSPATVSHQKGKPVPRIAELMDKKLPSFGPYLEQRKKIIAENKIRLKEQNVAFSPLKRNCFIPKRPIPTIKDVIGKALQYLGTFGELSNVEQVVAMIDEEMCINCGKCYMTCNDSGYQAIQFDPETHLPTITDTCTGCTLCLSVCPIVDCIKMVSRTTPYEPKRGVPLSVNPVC
The following applies: background statement.

Some results are limits rather than exact numbers.

In the case of `O=c1[nH]c(=O)n([C@H]2C[C@H](O)[C@@H](COP(=O)(O)O)O2)cc1F` [FdUMP, 5-Fluoro-2′-deoxyuridine-5′-O-monophosphate], in series [1], the “pKa (tri-protic phosphate), first value” is reported as “phosphate) 2.15,”; the “Peturbed pKa (physiological pH)” value was 6-6.5; the “pKa (tri-protic phosphate), second value” is reported as 7.20; the “pKa (tri-protic phosphate), third value” is 12.33.

Turning to `Nc1nc2c(ncn2[C@@H]2O[C@@H]3COP(=O)(O)O[C@H]4[C@@H](O)[C@H](n5cnc6c(N)ncnc65)O[C@@H]4COP(=O)(O)O[C@@H]2[C@@H]3O)c(=O)[nH]1` [cGAMP, 2′, 3′ cyclic guanosine monophosphate-adenosine monophosphate], in series [1], the “pKa (tri-protic phosphate), first value” is “phosphate) 2,15,”; the “Peturbed pKa (physiological pH)” value is “Greater than 6.5”; the “pKa (tri-protic phosphate), second value” is given as 7.20; the “pKa (tri-protic phosphate), third value” is recorded as 12.33.

Take `O=c1[nH]cc(F)c(=O)[nH]1` [Formulation 5-FU, 5-fluorouracil]: in series [2], the “degradation by dihydropyrimidine dehydrogenase (DPD)” value was more than 80%.
